In patent US20250114367A1, “METHOD OF TREATING HAIR LOSS DISORDERS” (Sun Pharmaceutical Industries, Inc., priority 2023, published 2025):

System: adult subjects with moderate to severe AA
Assay: Phase III trial: Clinical Global Impression of Severity (CGI-S)
Format: in vivo, human
Procedure: The CGI-S was assessed by the investigator and considered the severity of the subject's alopecia at the time of assessment. The investigator selected 1 of 7 numeric choices representing “Among the most extreme hair loss” to “Normal, no hair loss.” To reduce variability, 1 rater was to perform the CGI-S assessment for the subject. The definitions of the numeric choices is as follows: 1=normal, no hair loss; 2=borderline hair loss; 3=mild hair loss; 4=moderately hair loss; 5=marked hair loss; 6=severe hair loss; 7=among the most extreme hair loss.
A Phase III trial was conducted to assess the efficacy and safety of CTP-543 in adult subjects with moderate to severe AA. Approximately 440 adult male and female subjects 18 to 65 years of age, inclusive, with moderate to severe AA participated in the study. Subjects with definitive diagnosis of AA, and at least 50% hair loss, as defined by a SALT score ≥50, who met all of the inclusion criteria and none of the exclusion criteria participated in the study.
The Screening Period lasted up to 28 days prior to initiation of study drug. […] Randomization was stratified by scalp hair loss into 1 of the following 2 categories: 1) partial scalp hair loss (SALT ≥50 and <95), 2) complete or near complete scalp hair loss (SALT ≥95).
Additional secondary efficacy endpoints included the following: • Relative change in SALT scores from baseline at Weeks 4, 8, 12, 16, 20, and 24. • Percentage of responders (defined as “much improved” or “very much improved”) using the Clinical Global Impression of Improvement (CGI-I) at Weeks 12, 16, 20, and 24. • Percentage of responders (defined as “much improved” or “very much improved”) using the Patient Global Impression of Improvement (PGI-I) at Weeks 12, 16, 20, and 24. • Change from baseline in the Clinical Global Impression of Severity (CGI-S) at Weeks 12, 16, 20, and 24. • Change from baseline in the Patient Global Impression of Severity (PGI-S) at Weeks 12, 16, 20, and 24. • Change from baseline on the Brigham Eyebrow Tool for Alopecia (BETA) score at Weeks 12 and 24. • Change from baseline on the Brigham Eyelash Tool for Alopecia (BELA) score at Weeks 12 and 24. • Percentage of subjects achieving at least a 75% relative reduction in SALT score from baseline at Weeks 12 and 24. • Percentage of subjects achieving at least a 90% relative reduction in SALT score from baseline at Weeks 12 and 24. • Percentage of responders (defined as “satisfied” or “very satisfied”) on the SPRO scale at Weeks 12, 16, and 20. • Change from baseline in the SPRO scale at Weeks 12, 16, 20, and 24. • Percentage of subjects achieving a ≥2-point change from baseline in the SPRO scale at Weeks 12, 16, 20, and 24. • Change from baseline on the individual items of the Hair Quality Patient Reported Outcome (QPRO) scale at Weeks 12, 16, 20, and 24. • Change from baseline in the depression scale of the Hospital Anxiety and Depression Scale (HADS) at Week 24. • Change from baseline in the anxiety scale of the HADS at Week 24. • Percentage of subjects achieving an absolute SALT score of ≤20 at Week 4. • Percentage of subjects achieving an absolute SALT score of ≤10 at Week 24
A decrease in CGI-I score indicates improvement (impression is decreased severity). Similar to other endpoints, decreases favoring the active group over placebo were observed beginning at Week 12 and continuing through Week 24, and the magnitude of the differences increased at each subsequent time point. […] Detailed data for each time point are described below.

[2H]C1([2H])C([C@@H](CC#N)n2cc(-c3ncnc4[nH]ccc34)cn2)C([2H])([2H])C([2H])([2H])C1([2H])[2H] [CTP-543, (R)-3-(4-(7H-pyrrolo[2,3-d]pyrimidin-4-yl)-1H-pyrazol-1-yl)-3-(cyclopentyl-2,2,3,3,4,4,5,5-d8) propanenitrile]
CGI-S, LS mean change from baseline (Week 12, 8 mg BID): −1.3
CGI-S, LS mean change from baseline (Week 12, 12 mg BID): −1.4
CGI-S, LS mean change from baseline (Week 16, 12 mg BID): −1.8
CGI-S, LS mean change from baseline (Week 20, 8 mg BID): −1.8
CGI-S, LS mean change from baseline (Week 20, 12 mg BID): −2.1
CGI-S, LS mean change from baseline (Week 24, 8 mg BID): −2.1
CGI-S, LS mean change from baseline (Week 24, 12 mg BID): −2.4
